# Key:
# RyR1 [1] = target: T1, RyR1 (Sus scrofa, UniProt P16960); assay: FLT-FRET between D-FKBP and A-CaM bound to RyR1 in skeletal SR membranes (HTS and dose-response); assay type: binding, porcine; design: RyR1 in skeletal SR membranes, and RyR2 in cardiac SR membranes; from tissue; host or cells: porcine longissimus dorsi muscle (heavy SR vesicles); conditions: for Hit in primary FLT-FRET HTS of LOPAC (FRET altered by > 4 SD vs DMSO): 10 μM compound, 2-hour incubation, 0.3 μM A-CaM, 1536-well; for Hit in primary FLT-FRET HTS of LOPAC (FRET altered by > 4 SD vs DMSO) / IC50: 30 nM Ca2+; for Influence of GSSG vs GSH on the FRET dose-response effect: 5 mM GSSG vs 5 mM GSH; for Influence of GSSG vs GSH on the FRET dose-response effect / Compound concentration at which FRET is abolished: isoform not given (figures show skeletal and cardiac SR); for Effect on FRET: biphasic dose-response, isoform not stated; for Compound concentration at which FRET is abolished: FRET dose-response; for IC50: RyR1, skeletal SR
# Procedure: To confer compatibility with current HTS standards in industrial drug discovery facilities, we miniaturized our screening format from the previously established 384-well plates, requiring 50 μL sample per well[19], to 1536-well plates, requiring 5 μL sample per well. The complete 1280-compound library of pharmacologically active compounds (LOPAC) was applied as 5 nL/well in 40 columns of one 1536-well black-wall/black-bottom plate, with the remaining 8 columns loaded with 5 nL/well of DMSO, as no-drug controls. For each run of the screen, three plates were loaded with either (1) unlabeled HSR, or (2) HSR pre-incubated with donor-FKBP (D-FKBP; donor-only sample), or (3) donor-only sample that was additionally incubated with 0.3 μM acceptor-CaM (A-CaM) for 60 min prior to loading on the plate (donor-acceptor sample). This sub-saturating concentration of A-CaM was used to provide a readout that is sensitive to library compounds that may increase or decrease CaM binding affinity to RyR. To promote a homogenous population of RyR1 resembling that associated with myopathies, final assay conditions also included 30 nM Ca^2+ to represent resting (muscle relaxing) Ca^2+, and 5 mM oxidized glutathione (GSSG), which exaggerates the conditions associated with oxidative stress.
# We acquired both FLT waveforms and fluorescence spectra, as previously described[19],[33],[34]. As previously observed, Hit effects were greatest following a 2-hour incubation with the library compounds (Supplementary Fig. 1a). As a result, all FRET results shown in Figs. 1 and 2, and Supplementary Fig. 2 are reported from the 2-hour incubation.
# (§1) Necessary counter-screens to our pathological RyR1 conditions include evaluating compound effects in healthy conditions and on the cardiac isoform, RyR2. Using the same FRET assay as in HTS, we tested the dose response of key Hits from this screen and the previously HTS-identified RyR1 inhibitor, chloroxine, on healthy (5 mM GSH) and pathological (5 mM GSSG) conditions for both RyR1 in skeletal SR membranes, and RyR2 in cardiac SR membranes.
# (§2) Skeletal HSR and cardiac CSR (0.4 mg/ml) membranes were independently pre-incubated with 60 nM D-FKBP, for 90 min, at 37 °C, in a solution containing 150 mM KCl, 5 mM GSH, 0.1 mg/mL BSA, 1 µg/mL Aprotinin/Leupeptin, 1 mM DTT and 20 mM PIPES (pH 7.0). To remove unbound D-FKBP, the SR membranes were spun down at 110,000 × g for 20 min, and then resuspended to 1 mg/mL (skeletal HSR) and 2 mg/mL (cardiac CSR) in binding buffer consisting of 150 mM KCl, 5 mM GSSG, 0.1 mg/mL BSA, 1μg/mL Aprotinin/Leupeptin and 20 mM PIPES, pH 7.0. These samples were then incubated with indicated [A-CaM] for 30 min at 22 °C in binding buffer containing 0.065 mM CaCl2 to give 30 nM free Ca^2+ in the presence of 1 mM EGTA (calculated by MaxChelator). This labeled SR sample was applied to the assay plates in 5 μL aliquots using a Multidrop™ Combi reagent dispenser (Thermo Scientific) with a standard-tube. An additional set of the assay plates were loaded with skeletal HSR or cardiac CSR labeled with only D-FKBP (no added A-CaM).
# (§3) FLT measurements were conducted in a top-read FLT-PR designed and built by Fluorescence Innovations, Inc[33]. AF488 donor fluorescence was excited with a 473-nm microchip laser from Concepts Research Corporation (Belgium, WI), and emission was acquired with 490-nm long-pass and 517/20-nm band-pass filters (Semrock, Rochester, NY).
# FLT waveforms for each well were fit based on a one-exponential decay function using least-squares minimization global-analysis software (Fluorescence Innovations, Inc.), as previously described[19],[33]. FRET efficiency (E) was determined as the fractional decrease of donor FLT (τD), due to the presence of acceptor fluorophore (τDA), using the following equation:1 E=1−τDA/τD, […]
# RyR1 [2] = target: T1, RyR1; assay: [3H]ryanodine binding to skeletal SR vesicles; assay type: biochemical, porcine; design: RyR1 in skeletal SR membranes, and RyR2 in cardiac SR membranes; from tissue; host or cells: porcine longissimus dorsi muscle (heavy SR vesicles); conditions: 0-20 μM compound, Supplementary Fig. 5
# Procedure: To evaluate the functional impact of compounds identified through our FRET-based screen, we first used [^3H]ryanodine binding assays. The level of [^3H]ryanodine binding to RyRs in SR membranes is a well-established index of the RyR channel activity. Given the role of CaM binding in our FRET readout, we investigated whether CaM influences the functional effect of the Hit compounds by carrying out [^3H]ryanodine binding assays in the absence and presence of CaM (300 nM).
# Crude sarcoplasmic reticulum (CSR) vesicles were isolated from porcine longissimus dorsi muscle and porcine cardiac left ventricle tissue by differential centrifugation of homogenized tissue. HSR vesicles, which are enriched in RyR1, were isolated by fractionation of crude skeletal SR vesicles using a discontinuous sucrose gradient. All vesicles were flash-frozen and stored at −80 °C. Immediately prior to the fluorescence or [^3H]ryanodine binding studies described below, the SR vesicles were stripped of residual endogenous CaM by incubation with a peptide derived from the CaM binding domain of myosin light chain kinase, followed by sedimentation.
# In 96-well plates, HSR vesicles (1 mg/ml) and cardiac CSR vesicles (3 mg/mL) were pre-incubated with 0.02% DMSO or Hit compound, with or without 300 nM CaM, for 30 min at 22 °C in a solution containing 150 mM KCl, 5 mM GSSG, 1 µg/mL Aprotinin/Leupeptin, 1 mM EGTA, and 65 µM or 1.02 mM CaCl2 (as determined by MaxChelator to yield 30 nM or 30 μM of free Ca^2+, respectively), 0.1 mg/mL BSA and 20 mM K-PIPES (pH 7.0). Non-specific and maximal [^3H]ryanodine binding to SR were separately assessed by addition of 40 µM non-radioactively labeled ryanodine or 5 mM Adenylyl-imidodiphosphate, respectively. Such control samples were each distributed over 4 wells/plate. Binding of [^3H]ryanodine (10 and 15 nM for cardiac and skeletal SR, respectively) was determined after a 3-h incubation (37 °C) and filtration through grade GF/B Glass Microfiber filters (Brandel Inc., Gaithersburg, MD, US) using a Brandel Harvester. In 4 mL of Ecolite Scintillation cocktail (MP biomedicals, Solon, OH, USA), [^3H] on filter was counted using a Beckman LS6000 scintillation counter (Fullerton, CA).
# [3] = system: RyR1 Ca^2+ leak in human skinned skeletal muscle fibers; assay: t-system Ca2+ readout of RyR1 Ca2+ leak in human mechanically skinned skeletal muscle fibers; conditions: 1 mM
# RyR2 [4] = target: T2, RyR2 (Sus scrofa, UniProt A0A5G2R1W3); assay: F-FKBP binding to RyR2 by co-sedimentation with cardiac SR membranes; design: using co-sedimentation with pig skeletal and cardiac SR membranes; from tissue; host or cells: pig cardiac muscle (crude SR membranes); species or system pig; conditions: RyR2, 10 μM Hit, 30 nM Ca2+, 5 mM GSSG or GSH
# Procedure: (§4) The Hit-induced effect on FRET between D-FKBP and A-CaM most likely results from one or the combination of factors, including a shift in CaM and/or FKBP12.6 binding, and/or structure of the RyR complex that shifts the D-A distance. Under the same assay conditions as in the primary screen, we assessed the effect of 10 μM Hit on fluorescent FKBP12.6 (F-FKBP) binding to RyRs, using co-sedimentation with pig skeletal and cardiac SR membranes.
# (§5) Supplementary Fig. 3 Effect of HTS Hits on F-FKBP binding to a) RyR1 in skeletal HSR membranes, and b) RyR2
# (§6) in cardiac CSR membranes at 30 nM Ca2+ in the presence of 5 mM GSSG or GSH. Results are represented as individual
# (§7) data points and means ± SEM, n = 4-5. *P < 0.05 by 2-sided Student’s unpaired t-test. […]
# RyR1 [5] = target: T1, RyR1; assay: F-FKBP binding to RyR1 by co-sedimentation with skeletal SR membranes; design: using co-sedimentation with pig skeletal and cardiac SR membranes; from tissue; host or cells: pig skeletal muscle (heavy SR membranes); species or system pig; conditions: RyR1, 10 μM Hit, 30 nM Ca2+, 5 mM GSSG or GSH
# Procedure: as §4, §5, §6, §7
# RyR2 [6] = target: T2, RyR2; assay: FLT-FRET between D-FKBP and A-CaM bound to RyR2 in cardiac SR membranes (dose-response); assay type: binding, porcine; design: RyR1 in skeletal SR membranes, and RyR2 in cardiac SR membranes; from tissue; host or cells: porcine cardiac left ventricle (crude SR vesicles); conditions: RyR2, cardiac SR, 30 nM Ca2+
# Procedure: as §1, §2, §3
# FLT waveforms for each well were fit based on a one-exponential decay function using least-squares minimization global-analysis software (Fluorescence Innovations, Inc.), as previously described[19],[33]. FRET efficiency (E) was determined as the fractional decrease of donor FLT (τD), due to the presence of acceptor fluorophore (τDA), using the following equation:1 E=1−τDA/τD,
# T2 sequence (A0A5G2R1W3 20-4900): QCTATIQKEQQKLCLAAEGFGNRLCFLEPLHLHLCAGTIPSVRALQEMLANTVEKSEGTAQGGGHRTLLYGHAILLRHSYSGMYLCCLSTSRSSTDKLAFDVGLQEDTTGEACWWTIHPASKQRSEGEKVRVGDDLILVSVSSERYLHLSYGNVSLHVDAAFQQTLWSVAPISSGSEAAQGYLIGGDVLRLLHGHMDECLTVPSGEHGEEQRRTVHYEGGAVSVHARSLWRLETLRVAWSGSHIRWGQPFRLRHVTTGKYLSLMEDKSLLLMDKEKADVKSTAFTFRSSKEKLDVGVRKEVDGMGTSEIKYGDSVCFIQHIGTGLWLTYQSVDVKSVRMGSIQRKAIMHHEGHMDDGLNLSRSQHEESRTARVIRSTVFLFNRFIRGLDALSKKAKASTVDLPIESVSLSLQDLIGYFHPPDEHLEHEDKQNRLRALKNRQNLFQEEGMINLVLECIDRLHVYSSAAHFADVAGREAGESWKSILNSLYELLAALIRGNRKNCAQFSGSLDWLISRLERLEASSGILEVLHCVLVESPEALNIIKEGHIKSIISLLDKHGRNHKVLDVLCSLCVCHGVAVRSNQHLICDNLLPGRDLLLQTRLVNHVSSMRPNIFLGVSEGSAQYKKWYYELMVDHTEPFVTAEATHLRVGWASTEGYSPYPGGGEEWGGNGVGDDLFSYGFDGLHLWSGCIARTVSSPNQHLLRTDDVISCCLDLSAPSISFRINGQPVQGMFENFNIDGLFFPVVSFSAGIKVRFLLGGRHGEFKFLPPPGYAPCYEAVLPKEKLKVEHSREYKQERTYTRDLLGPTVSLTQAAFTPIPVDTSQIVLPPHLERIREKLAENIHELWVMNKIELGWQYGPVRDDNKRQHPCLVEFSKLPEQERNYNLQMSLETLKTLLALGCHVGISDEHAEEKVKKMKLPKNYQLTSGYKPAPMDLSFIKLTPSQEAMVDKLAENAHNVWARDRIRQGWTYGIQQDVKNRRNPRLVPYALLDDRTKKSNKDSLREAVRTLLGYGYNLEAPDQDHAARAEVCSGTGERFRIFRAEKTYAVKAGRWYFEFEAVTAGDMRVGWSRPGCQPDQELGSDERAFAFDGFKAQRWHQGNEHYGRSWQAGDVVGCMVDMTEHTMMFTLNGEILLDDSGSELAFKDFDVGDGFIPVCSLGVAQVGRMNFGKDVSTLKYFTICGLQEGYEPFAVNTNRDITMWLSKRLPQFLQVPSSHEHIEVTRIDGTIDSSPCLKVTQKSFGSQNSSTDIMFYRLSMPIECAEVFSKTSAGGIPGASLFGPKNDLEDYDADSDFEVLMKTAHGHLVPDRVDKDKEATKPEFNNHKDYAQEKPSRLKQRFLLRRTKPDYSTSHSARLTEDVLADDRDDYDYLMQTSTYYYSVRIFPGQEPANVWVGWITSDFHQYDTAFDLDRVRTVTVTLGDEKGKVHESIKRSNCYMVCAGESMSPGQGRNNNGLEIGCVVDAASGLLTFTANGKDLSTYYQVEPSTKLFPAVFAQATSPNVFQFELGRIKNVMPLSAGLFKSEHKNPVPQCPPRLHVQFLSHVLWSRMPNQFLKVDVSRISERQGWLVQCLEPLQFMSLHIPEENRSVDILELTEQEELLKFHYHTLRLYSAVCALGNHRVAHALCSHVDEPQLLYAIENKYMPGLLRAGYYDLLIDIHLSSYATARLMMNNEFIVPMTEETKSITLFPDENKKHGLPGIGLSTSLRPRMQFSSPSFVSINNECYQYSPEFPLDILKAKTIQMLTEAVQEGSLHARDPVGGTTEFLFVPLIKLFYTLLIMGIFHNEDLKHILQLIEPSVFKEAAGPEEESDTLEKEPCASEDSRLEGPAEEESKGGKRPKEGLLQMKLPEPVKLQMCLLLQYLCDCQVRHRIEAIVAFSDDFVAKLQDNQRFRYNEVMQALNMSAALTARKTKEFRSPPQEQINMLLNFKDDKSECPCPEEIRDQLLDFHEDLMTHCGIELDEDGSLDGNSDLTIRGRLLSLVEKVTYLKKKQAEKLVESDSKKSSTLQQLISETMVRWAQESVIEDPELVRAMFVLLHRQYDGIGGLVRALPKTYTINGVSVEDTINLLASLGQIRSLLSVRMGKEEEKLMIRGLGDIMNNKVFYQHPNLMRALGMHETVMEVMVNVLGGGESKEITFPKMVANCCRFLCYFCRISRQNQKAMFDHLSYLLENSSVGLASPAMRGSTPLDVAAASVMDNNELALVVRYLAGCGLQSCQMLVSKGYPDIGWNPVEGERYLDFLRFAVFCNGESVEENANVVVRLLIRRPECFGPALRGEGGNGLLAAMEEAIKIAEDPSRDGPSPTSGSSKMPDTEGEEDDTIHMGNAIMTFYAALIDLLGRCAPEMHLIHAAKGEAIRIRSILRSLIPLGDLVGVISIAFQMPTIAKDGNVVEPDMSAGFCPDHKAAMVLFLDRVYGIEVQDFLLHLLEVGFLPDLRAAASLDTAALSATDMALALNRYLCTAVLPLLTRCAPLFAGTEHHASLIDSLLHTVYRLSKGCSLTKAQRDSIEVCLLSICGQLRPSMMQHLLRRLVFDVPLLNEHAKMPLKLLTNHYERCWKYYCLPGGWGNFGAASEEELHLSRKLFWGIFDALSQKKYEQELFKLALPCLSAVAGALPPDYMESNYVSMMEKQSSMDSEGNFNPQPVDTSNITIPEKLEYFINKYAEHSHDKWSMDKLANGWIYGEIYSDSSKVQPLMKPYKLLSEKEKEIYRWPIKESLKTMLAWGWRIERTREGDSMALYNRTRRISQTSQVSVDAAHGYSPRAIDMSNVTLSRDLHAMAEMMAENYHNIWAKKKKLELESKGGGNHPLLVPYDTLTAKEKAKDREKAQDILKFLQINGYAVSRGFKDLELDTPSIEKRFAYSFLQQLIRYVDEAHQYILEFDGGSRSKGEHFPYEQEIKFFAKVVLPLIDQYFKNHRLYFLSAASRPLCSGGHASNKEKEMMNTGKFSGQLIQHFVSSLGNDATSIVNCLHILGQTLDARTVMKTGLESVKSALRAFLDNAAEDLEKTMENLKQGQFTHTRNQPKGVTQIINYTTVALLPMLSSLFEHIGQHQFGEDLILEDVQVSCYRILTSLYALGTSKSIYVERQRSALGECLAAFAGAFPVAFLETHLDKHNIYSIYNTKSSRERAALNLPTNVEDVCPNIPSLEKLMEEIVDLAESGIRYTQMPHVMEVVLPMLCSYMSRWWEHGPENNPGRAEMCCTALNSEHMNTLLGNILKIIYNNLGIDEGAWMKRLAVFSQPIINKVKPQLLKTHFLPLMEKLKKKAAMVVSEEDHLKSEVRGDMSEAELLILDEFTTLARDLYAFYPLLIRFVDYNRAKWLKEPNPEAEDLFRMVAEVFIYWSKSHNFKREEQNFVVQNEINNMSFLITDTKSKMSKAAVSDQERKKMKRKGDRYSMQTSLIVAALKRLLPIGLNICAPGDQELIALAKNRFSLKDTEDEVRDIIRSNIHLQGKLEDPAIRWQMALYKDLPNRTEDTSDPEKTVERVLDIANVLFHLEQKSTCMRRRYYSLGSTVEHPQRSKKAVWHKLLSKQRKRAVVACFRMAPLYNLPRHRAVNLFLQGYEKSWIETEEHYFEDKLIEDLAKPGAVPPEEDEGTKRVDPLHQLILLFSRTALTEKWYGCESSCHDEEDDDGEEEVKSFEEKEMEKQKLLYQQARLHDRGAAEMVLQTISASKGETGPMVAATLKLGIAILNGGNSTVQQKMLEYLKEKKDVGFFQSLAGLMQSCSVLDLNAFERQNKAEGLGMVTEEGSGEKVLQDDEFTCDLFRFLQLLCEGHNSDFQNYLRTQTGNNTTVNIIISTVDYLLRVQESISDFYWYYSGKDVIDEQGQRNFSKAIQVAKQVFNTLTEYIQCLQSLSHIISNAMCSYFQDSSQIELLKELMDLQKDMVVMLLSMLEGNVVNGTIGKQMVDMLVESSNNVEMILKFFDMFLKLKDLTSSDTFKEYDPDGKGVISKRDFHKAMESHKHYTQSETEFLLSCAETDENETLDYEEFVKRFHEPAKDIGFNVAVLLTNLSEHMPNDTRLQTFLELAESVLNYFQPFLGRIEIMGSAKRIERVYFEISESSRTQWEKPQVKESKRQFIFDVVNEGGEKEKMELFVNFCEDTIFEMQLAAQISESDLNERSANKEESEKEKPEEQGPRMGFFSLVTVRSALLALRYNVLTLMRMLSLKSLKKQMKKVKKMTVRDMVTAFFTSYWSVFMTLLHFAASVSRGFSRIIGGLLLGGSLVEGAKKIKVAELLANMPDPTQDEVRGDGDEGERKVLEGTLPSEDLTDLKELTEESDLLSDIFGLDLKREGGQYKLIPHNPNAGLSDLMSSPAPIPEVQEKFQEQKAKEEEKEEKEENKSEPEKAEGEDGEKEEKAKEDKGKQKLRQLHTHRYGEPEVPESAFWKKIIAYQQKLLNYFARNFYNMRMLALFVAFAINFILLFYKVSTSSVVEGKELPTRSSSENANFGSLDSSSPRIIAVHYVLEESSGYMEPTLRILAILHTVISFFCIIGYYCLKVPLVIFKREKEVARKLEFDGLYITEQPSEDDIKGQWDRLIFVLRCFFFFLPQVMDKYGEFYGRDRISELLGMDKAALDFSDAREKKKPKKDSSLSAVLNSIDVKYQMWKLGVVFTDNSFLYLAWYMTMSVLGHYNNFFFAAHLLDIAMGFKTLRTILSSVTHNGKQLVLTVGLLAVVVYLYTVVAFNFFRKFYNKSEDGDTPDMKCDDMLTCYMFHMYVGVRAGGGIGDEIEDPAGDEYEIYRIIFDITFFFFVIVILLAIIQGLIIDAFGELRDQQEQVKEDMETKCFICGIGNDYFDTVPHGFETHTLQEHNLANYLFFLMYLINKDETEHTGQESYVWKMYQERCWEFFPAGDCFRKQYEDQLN
compound,measurement,setting,value
C[C@H](O)[C@H](O)[C@H]1CNc2nc(N)[nH]c(=O)c2N1 [(6 R)-BH4],Hit in primary FLT-FRET HTS of LOPAC (FRET altered by > 4 SD vs DMSO),RyR1 [1]; 5 mM GSSG,observe
Oc1ccc2ccccc2c1SSc1c(O)ccc2ccccc12 [IPA-3],Influence of GSSG vs GSH on the FRET dose-response effect,RyR1 [1],more strongly decreased FRET in the presence of GSSG vs. GSH
O=C(Nc1cccc(C(=O)Nc2ccc(S(=O)(=O)O)c3cc(S(=O)(=O)O)cc(S(=O)(=O)O)c23)c1)Nc1cccc(C(=O)Nc2ccc(S(=O)(=O)O)c3cc(S(=O)(=O)O)cc(S(=O)(=O)O)c23)c1 [NF023],Hit in primary FLT-FRET HTS of LOPAC (FRET altered by > 4 SD vs DMSO),RyR1 [1]; 5 mM GSSG,identified
Nc1ccc(-c2nc3ccc(-c4nc5ccc(N)cc5[nH]4)cc3[nH]2)cc1 [Ro 90–7501],Influence of GSSG vs GSH on the FRET dose-response effect,RyR1 [1],very similar FRET dose-response effects with GSSG or GSH
same,Effect on FRET,RyR1 [1]; micromolar [compound],decreased
same,Effect on FRET,RyR1 [1]; sub-micromolar [compound],increased
same,Effect on [3H]ryanodine binding,RyR1 [2],inhibited
CN=c1nc(-c2ccccc2)n(-c2ccccc2)s1 [SCH-202676],Hit in primary FLT-FRET HTS of LOPAC (FRET altered by > 4 SD vs DMSO),RyR1 [1]; 5 mM GSSG,observe
same,Influence of GSSG vs GSH on the FRET dose-response effect,RyR1 [1],more strongly decreased FRET in the presence of GSSG vs. GSH
"CCCCNc1ccc(C(=O)OCCN(C)C)cc1 [Tetracaine, tetracaine]",RyR inhibition (reference level of leak assay),[3],full RyR inhibition
O=C(O)C1=CC(=C(c2ccc(O)c(C(=O)O)c2)c2ccc(O)c(C(=O)O)c2)C=CC1=O [aurintricarboxylic acid],Hit in primary FLT-FRET HTS of LOPAC (FRET altered by > 4 SD vs DMSO),RyR1 [1]; 5 mM GSSG,observe
same,Compound concentration at which FRET is abolished,RyR1 [1],≥ 10 µM
same,Effect on [3H]ryanodine binding,RyR1 [2],potent inhibitor
N.N.[Cl][Pt][Cl] [cisplatin],Hit in primary FLT-FRET HTS of LOPAC (FRET altered by > 4 SD vs DMSO),RyR1 [1]; 5 mM GSSG,decrease in FRET
same,Influence of GSSG vs GSH on the FRET dose-response effect,RyR1 [1],more strongly decreased FRET in the presence of GSSG vs. GSH
CCN(CC)C(=S)SSC(=S)N(CC)CC [disulfiram],Hit in primary FLT-FRET HTS of LOPAC (FRET altered by > 4 SD vs DMSO),RyR1 [1]; 5 mM GSSG,identified
same,Influence of GSSG vs GSH on the FRET dose-response effect,RyR1 [1],more strongly decreased FRET in the presence of GSSG vs. GSH
Cc1ccc(C(=O)Nc2ccc(S(=O)(=O)O)c3cc(S(=O)(=O)O)cc(S(=O)(=O)O)c23)cc1NC(=O)c1cccc(NC(=O)Nc2cccc(C(=O)Nc3cc(C(=O)Nc4ccc(S(=O)(=O)O)c5cc(S(=O)(=O)O)cc(S(=O)(=O)O)c45)ccc3C)c2)c1 [suramin],Decrease of F-FKBP binding,RyR2 [4],did not alter
same,Decrease of F-FKBP binding,RyR1 [5],did not alter
same,IC50,RyR2 [6]; 5 mM GSH,2.5 ± 0.3 µM
same,IC50,RyR2 [6]; 5 mM GSSG,2.4 ± 0.6 µM
same,Hit in primary FLT-FRET HTS of LOPAC (FRET altered by > 4 SD vs DMSO),RyR1 [1]; 5 mM GSSG,identified
same,Influence of GSSG vs GSH on the FRET dose-response effect,RyR1 [1],not altered by GSH or GSSG
same,Compound concentration at which FRET is abolished,RyR1 [1],≤ 20 µM
same,IC50,RyR1 [1]; 5 mM GSH,5.9 ± 0.7 µM
same,IC50,RyR1 [1]; 5 mM GSSG,7.1 ± 0.5 µM
C=CC[C@@H]1/C=C(\C)C[C@H](C)C[C@H](OC)[C@H]2O[C@@](O)(C(=O)C(=O)N3CCCC[C@H]3C(=O)O[C@H](/C(C)=C/[C@@H]3CC[C@@H](O)[C@H](OC)C3)[C@H](C)[C@@H](O)CC1=O)[C@H](C)C[C@@H]2OC [tacrolimus],Decrease of F-FKBP binding,RyR2 [4],70%
same,Decrease of F-FKBP binding,RyR1 [5],20%
Reactive Blue,Hit in primary FLT-FRET HTS of LOPAC (FRET altered by > 4 SD vs DMSO),RyR1 [1]; 5 mM GSSG,observe
